The test system of assay [1] is resistin mRNA in primary human macrophages. The assay can be described thus: Resistin mRNA expression in primary human macrophages (real time PCR). The assay is classed as cell-based. Particulars: for effect on induction of resistin by LPS: pretreated 2 h, then LPS (1 ng/ml) 24 h. Here is the method: (§1) Peripheral blood mononuclear cells were isolated from whole blood of healthy donors following apheresis and elutriation. […] Cells were plated in 24 well plates at a density of 10^6 cells per well, allowed to adhere for 4 hours, then washed with Dulbecco's Modified Eagles Medium (DMEM) and further cultured in 10% FBS in DMEM supplemented with 5 ng/ml GM-CSF (Sigma) to promote macrophage differentiation. All experiments were performed after overnight equilibration with macrophage serum free medium (Gibco/Invitrogen) supplemented with 5 ng/ml GM-CSF. […] Adenovirus expressing activated IKK in pAD-easy™ vector with GFP and control vector were a generous gift from Steven Shoelson.
RNA was isolated using RNeasy® Mini Kit (Qiagen), then subjected to DNAse digestion followed by reverse transcription (Invitrogen). mRNA transcripts were quantified by the dual-labeled fluorogenic probe method for real time PCR, using a Prism® 7900 thermal cycler and sequence detector (Perkin Elmer/ABI). Real time PCR was performed by using Taqman® Universal Polymerase Master Mix (Applied Biosystems). The primers and probes used in the real-time PCR were the following: […]
The cycle number at which the transcripts of the gene of interest was detectable (CT) was normalized to the cycle number of 36B4 detection, referred to as δ CT. The fold change of the gene of interest expression relative to the vehicle treated group was expressed as 2^− δδ^CT, in which δδ CT equals the δCT of the compound treated group minus δCT of the chosen control group, which was normalized to 1.
Background: In qPCR the cycle at which signal appears reflects the starting amount.

Assay [2] has as its system sTNFR2 secretion by human macrophages. The assay can be described thus: sTNFR2 secretion into medium by primary human macrophages. The assay is classed as cell-based. The note with it: LPS 1 μg/ml, time course. Here is the method: (§2) Peripheral blood mononuclear cells were isolated from whole blood of healthy donors following apheresis and elutriation. Greater than 90% of these monocytes expressed CD14 and HLA-DR. Cells were plated in 24 well plates at a density of 10^6 cells per well, allowed to adhere for 4 hours, then washed with Dulbecco's Modified Eagles Medium (DMEM) and further cultured in 10% FBS in DMEM supplemented with 5 ng/ml GM-CSF (Sigma) to promote macrophage differentiation. All experiments were performed after overnight equilibration with macrophage serum free medium (Gibco/Invitrogen) supplemented with 5 ng/ml GM-CSF. […]
Resistin concentrations, in cell media and human plasma, were assessed with a commercially available ELISA (Linco) and normalized to cell protein. […] Direct comparison of standard curves generated by the Linco kit with another commercially available resistin ELISA (Biovendor) yielded high correlation (rho=0.99, p<0.001), except that the Biovendor results were approximately 30% lower than those determined with the Linco assay. […] Resistin levels in 40 plasma samples were measured using both Linco and Biovendor ELISA kits, with moderate correlation (rho=0.66). Levels of soluble TNFα Receptor-2 were measured using a commercially available immunoassay (R&D Systems). […]

Assay [3] relates to plasma resistin. The assay can be described thus: Human endotoxemia study, plasma resistin (ELISA). Format: in vivo. Particulars: for increase of plasma resistin levels: healthy volunteers. Here is the method: In another experiment, short term variation in plasma levels was examined by repeated sampling in young healthy control subjects of an additional clinical research study (Reilly et al, 2004c, and Lehrke, 2004, both cited above). Baseline variability in plasma resistin was assessed over a 24 hour period, in healthy young volunteers (n=6; three male and three females; age 24-34; BMI 24.3±1.07) without any past medical history and on no medications. These subjects were recruited to a 60-hour inpatient, General Clinical Research Center (GCRC) protocol designed to assess the metabolic responses to an inflammatory stimulus. Plasma resistin levels were determined in serial blood samples, collected at eight time points over 24 hours prior to the intravenous administration of human-research-grade endotoxin (3 ng/kg) as described in more detail in Reilly et al, 2004c, cited above.
Resistin concentrations, in cell media and human plasma, were assessed with a commercially available ELISA (Linco) and normalized to cell protein. Average correlation coefficient for standards using 4 parameter fit was 0.99. Intra-assay and inter-assay coefficients of variance were 4.7% and 9.1%, respectively. Direct comparison of standard curves generated by the Linco kit with another commercially available resistin ELISA (Biovendor) yielded high correlation (rho=0.99, p<0.001), except that the Biovendor results were approximately 30% lower than those determined with the Linco assay. This appeared to be related to the standards used for calibration. Discrepant absolute values among different assays, including the Biovendor assay, were recently described (Pfutzner 2003 cited above). Resistin levels in 40 plasma samples were measured using both Linco and Biovendor ELISA kits, with moderate correlation (rho=0.66). Levels of soluble TNFα Receptor-2 were measured using a commercially available immunoassay (R&D Systems). Intra-assay and inter assay coefficients of variance were 5.1% and 9.8%, respectively.
Healthy volunteers (n=6, 3 male, 3 female) aged 18-45 with BMI between 20 and 30 and on no medications were studied. The University of Pennsylvania Institutional Review Board approved the study protocol and all subjects gave written informed consent. Following screening and exclusion of subjects with any clinical or laboratory abnormalities, subjects were admitted to the General Clinical Research Center at the University of Pennsylvania for a 60 hour stay. Serial blood samples were collected for 24 hours prior to and 24 hours following the intravenous administration of human research grade endotoxin [obtained from NIH Clinical Center, reference endotoxin (CCRE) (lots 1 and 2; NIHCC PDS #67801)] at a dose of 3 ng/kg given at 6 AM. Plasma and whole blood RNA (PAX tube isolators, Qiagen) samples were isolated from blood, and stored under appropriate conditions for subsequent assays.

Assay [4] deals with TNFα mRNA in primary human macrophages. The assay can be described thus: TNFα mRNA expression in primary human macrophages (real time PCR). The assay is classed as cell-based. The note with it: LPS 1 μg/ml. How it is done:
as §2, with “GM-CSF. Cells were treated as indicated with LPS (Sigma), aspirin (Sigma), SN50 and control peptide (Biomol), MG132, PD98059, SB20358 (Calbiochem), and TNFα (R&D Systems).” for “GM-CSF.”
RNA was isolated using RNeasy® Mini Kit (Qiagen), then subjected to DNAse digestion followed by reverse transcription (Invitrogen). mRNA transcripts were quantified by the dual-labeled fluorogenic probe method for real time PCR, using a Prism® 7900 thermal cycler and sequence detector (Perkin Elmer/ABI). […]
Primer and probe for TNFα was obtained from ABI. […] The fold change of the gene of interest expression relative to the vehicle treated group was expressed as 2^− δδ^CT, in which δδ CT equals the δCT of the compound treated group minus δCT of the chosen control group, which was normalized to 1.

Assay [5] relates to mouse resistin in mouse peritoneal macrophages. The assay can be described thus: Resistin expression in activated mouse peritoneal macrophages. Format: cell-based. Particulars: macrophages harvested after thioglycolate treatment; data not shown.
Assay [6] relates to TNFα secretion by human macrophages. As to the kind of experiment: TNFα secretion into medium by primary human macrophages. Format: cell-based. Particulars: LPS 1 μg/ml, time course. How it is done: Peripheral blood mononuclear cells were isolated from whole blood of healthy donors following apheresis and elutriation. Greater than 90% of these monocytes expressed CD14 and HLA-DR. Cells were plated in 24 well plates at a density of 10^6 cells per well, allowed to adhere for 4 hours, then washed with Dulbecco's Modified Eagles Medium (DMEM) and further cultured in 10% FBS in DMEM supplemented with 5 ng/ml GM-CSF (Sigma) to promote macrophage differentiation. All experiments were performed after overnight equilibration with macrophage serum free medium (Gibco/Invitrogen) supplemented with 5 ng/ml GM-CSF. Cells were treated as indicated with LPS (Sigma), aspirin (Sigma), SN50 and control peptide (Biomol), MG132, PD98059, SB20358 (Calbiochem), and TNFα (R&D Systems). Neutralizing antibodies to TNFα, IL-6, and anti-IL-6α, as well as control IgG were obtained from R&D Systems. Adenovirus expressing activated IKK in pAD-easy™ vector with GFP and control vector were a generous gift from Steven Shoelson.

In assay [7] the test system is resistin protein secretion by human macrophages. As to the kind of experiment: Resistin protein secretion by primary human macrophages (ELISA). The assay is classed as cell-based. Here is the method: as §1
Resistin concentrations, in cell media and human plasma, were assessed with a commercially available ELISA (Linco) and normalized to cell protein.
(In general: In an ELISA, binding on a coated surface is turned into a signal by an enzyme label.)

Setting [8] is: LPS 24 h treatment, increasing concentration.
The mark [9] stands for this setting: human macrophages in cell culture.

Peptide text beside a SMILES is read from it. * marks the point of attachment. Cbz = O=C(OCc1ccccc1)* Bounds are passed on as bounds.

For the compound `CC(=O)Oc1ccccc1C(=O)O` [aspirin], the “effect on endotoxin-induced resistin expression” value in assay [1] (pre-treated with aspirin 2 h, then LPS (1 μg/ml) and aspirin 24 h, dose-dependent) was “dramatically decreased”.
As to `C[S+]([O-])c1ccc(-c2nc(-c3ccc(F)cc3)c(-c3ccncc3)[nH]2)cc1` (stereo not drawn) [SB20358], the “effect on induction of resistin by LPS” value in assay [1] (2.5 μM) is “partially blocked”.
For IL-6: cytokine interleukin-6, in assay [1] (data not shown and Kaser et al, 2003), the effect on resistin result was “induces resistin modestly”.
For `CC(C)C[C@@H](C=O)NC(=O)[C@H](CC(C)C)NC(=O)[C@H](CC(C)C)NC(=O)OCc1ccccc1` [MG132] (Cbz-Leu-Leu-Leu-aldehyde), the “effect on endotoxin-induced activation of resistin expression” value in assay [1] (MG132 treatment of macrophages, data not shown) was “abrogated”.
As to `COc1cccc(-c2cc(=O)c3ccccc3o2)c1N` [PD98059], the “effect on induction of resistin by LPS” value in assay [1] (50 μM) is “partially blocked”.
Turning to lipopolysaccharide [LPS], the “time of peak resistin gene expression after LPS” value in assay [1] (LPS 1 μg/ml) amounted to 24 h. Further, the “effect on resistin gene expression” value in assay [1] (setting [8]) was “dramatic, dose-responsive increase”. Besides, in assay [1] (setting [9]), the “time of induction of resistin mRNA after LPS exposure” value fell in the range of 6 to 24 h. The “maximal secreted protein level: sTNFR2” value in assay [2] was 39.3 ng/mL/mg. In addition, the “increase of resistin serum/plasma levels” value in assay [3] (LPS in humans (FIG. 6A)) was “over 400%”. Besides, the “putative maximum increase in resistin due to inflammation” value in assay [3] (endotoxin induction, Examples 6-12) is 18 to 19 ng/mL. Besides, in assay [3] (intravenous LPS 3 ng/kg, listed as endotoxemia), the “increase of plasma resistin levels” value is reported as greater than 7 fold. Also, the “increase of plasma resistin levels” value in assay [3] (intravenous LPS 3 ng/kg, listed as endotoxin) is 3-5 fold. In addition, the “time of peak resistin levels after LPS administration” value in assay [3] (intravenous LPS 3 ng/kg, six normal volunteers) was 8 to 16 h. In assay [4], the “time at which TNFα gene expression was detectable after LPS” value is 2 h and the “time of peak TNFα gene expression after LPS exposure” value is 6 h. Further, in assay [5], the “mouse resistin expression after LPS” value is given as “did not express detectable levels”. In addition, the “maximal secreted protein level: TNFα” value in assay [6] came out at 207.2 ng/mL/mg. In assay [7] (LPS 1 μg/ml, time course, normalized to cell protein), the “maximal secreted protein level: resistin” value worked out at 21.9 ng/mL/mg. For the same compound, the “effect on resistin protein secretion into the medium” value in assay [7] (setting [8]) is listed as “increase in resistin protein secretion”. For the same compound, the “time of induction of resistin protein after LPS exposure” value in assay [7] (setting [9]) fell in the range of 6 to 24 h.

Source of the values: patent US20110110924A1, “Resistin as a Marker and Therapeutic Target for Cardiovascular Disease” (priority 2004, published 2011).
